Counter-ions that a name gives are not always drawn.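 In this assay, cells in 96-well plates receive the compound at five concentrations for 48 hours. Endpoints are linearly interpolated between the surrounding concentrations. GI50 = concentration required for 50% inhibition of growth.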 Active and inactive are the calls of the source. Rule as the data show it: active = GI50 up to about 1.1 µM and inactive = higher.
Tests used:
Test in all cases: DTP human tumour cell line panel, 48 h
DU-145 = tested on: DU-145
MDA-N = tested on: MDA-N
A498 = tested on: A498
MDA-MB-231 = tested on: MDA-MB-231
RPMI-8226 = tested on: RPMI-8226
PC-3 = tested on: PC-3
RXF 393 = tested on: RXF 393
T47D = tested on: T47D
UACC-257 = tested on: UACC-257
IGROV-1 = tested on: IGROV-1
NCI/ADR-RES = tested on: NCI/ADR-RES
MDA-MB-435 = tested on: MDA-MB-435
OVCAR-5 = tested on: OVCAR-5
SK-OV-3 = tested on: SK-OV-3
HCT-15 = tested on: HCT-15
Hs-578T = tested on: Hs-578T
BT-549 = tested on: BT-549
786-0 = tested on: 786-0
SR = tested on: SR
DLD-1 = tested on: DLD-1

Row | SMILES | GI50 (DU-145) | GI50 (MDA-N) | GI50 (A498) | GI50 (MDA-MB-231) | GI50 (RPMI-8226) | GI50 (PC-3) | GI50 (RXF 393) | GI50 (T47D) | GI50 (UACC-257) | GI50 (IGROV-1) | GI50 (NCI/ADR-RES) | GI50 (MDA-MB-435) | GI50 (OVCAR-5) | GI50 (SK-OV-3) | GI50 (HCT-15) | GI50 (Hs-578T) | GI50 (BT-549) | GI50 (786-0) | GI50 (SR) | GI50 (DLD-1)
1 | CCOC(=O)c1csc(NC(=O)CN2CCCCC2)n1 | > 100 µM (inactive) | > 100 µM (inactive) | > 100 µM (inactive) | > 100 µM (inactive) | > 100 µM (inactive) | > 100 µM (inactive) | > 100 µM (inactive) | > 100 µM (inactive) | > 100 µM (inactive) | > 100 µM (inactive) | > 100 µM (inactive) | > 100 µM (inactive) | > 100 µM (inactive) | > 100 µM (inactive) | > 100 µM | > 100 µM (inactive) | – | – | – | –
2 | COc1ccc(N[C@H](C[S+]([O-])c2ccc(C)cc2)C(F)(F)C(F)(F)F)cc1 (stereo partly drawn) | > 100 µM (inactive) | > 100 µM (inactive) | > 100 µM (inactive) | – | > 100 µM (inactive) | – | 4.21 µM (inactive) | 14.1 µM (inactive) | > 100 µM (inactive) | > 100 µM (inactive) | > 100 µM (inactive) | > 100 µM (inactive) | > 100 µM (inactive) | 44.1 µM (inactive) | > 100 µM | 36.6 µM (inactive) | 85.1 µM (inactive) | 65.8 µM (inactive) | – | –
3 | CCCCOc1ccc2c(c1)CC[C@@H]1[C@@H]2CC[C@]2(C)C(=O)N(CCCC)C(=O)C[C@@H]12 | > 100 µM (inactive) | > 100 µM (inactive) | > 100 µM (inactive) | > 100 µM (inactive) | 65.9 µM (inactive) | 25.1 µM (inactive) | – | > 100 µM (inactive) | – | > 100 µM (inactive) | > 100 µM (inactive) | > 100 µM (inactive) | > 100 µM (inactive) | > 100 µM (inactive) | > 100 µM | > 100 µM (inactive) | 87.9 µM (inactive) | – | > 100 µM (inactive) | –
4 | NCCCCNOCCCN | > 100 µM (inactive) | > 100 µM (inactive) | – | – | > 100 µM (inactive) | > 100 µM (inactive) | > 100 µM (inactive) | > 100 µM (inactive) | > 100 µM (inactive) | > 100 µM (inactive) | > 100 µM (inactive) | > 100 µM (inactive) | 42.8 µM (inactive) | > 100 µM (inactive) | – | > 100 µM (inactive) | > 100 µM (inactive) | – | > 100 µM (inactive) | –
5 | COC1CCC2C(=O)CCCC2O1 (stereo not drawn) | – | – | > 100 µM (inactive) | – | > 100 µM (inactive) | – | > 100 µM (inactive) | – | > 100 µM (inactive) | > 100 µM (inactive) | – | – | > 100 µM (inactive) | > 100 µM (inactive) | > 100 µM | – | – | > 100 µM (inactive) | > 100 µM (inactive) | > 100 µM (inactive)
6 | O=S1(=O)C[C@H](NCc2ccccc2)[C@H](NCc2ccccc2)C1 | > 100 µM (inactive) | > 100 µM (inactive) | – | > 100 µM (inactive) | 22.8 µM (inactive) | 56.5 µM (inactive) | > 100 µM (inactive) | 30.8 µM (inactive) | > 100 µM (inactive) | > 100 µM (inactive) | 61.5 µM (inactive) | > 100 µM (inactive) | > 100 µM (inactive) | > 100 µM (inactive) | – | 73.3 µM (inactive) | 94.2 µM (inactive) | – | 18.4 µM (inactive) | –
7 | COC(=O)C1=C(O)C(C(=O)OC)[C@@]2(O)[C@@H](C(=O)OC)[C@H](C)C[C@@H]1[C@@H]2C(=O)OC (stereo partly drawn) | 20.2 µM (inactive) | 15.2 µM (inactive) | 15.5 µM (inactive) | 14.1 µM (inactive) | 23.8 µM (inactive) | – | 15.4 µM (inactive) | 46.8 µM (inactive) | 63.1 µM (inactive) | – | – | 14.7 µM (inactive) | 30.5 µM (inactive) | 26 µM (inactive) | 25.9 µM | 19.9 µM (inactive) | 32.9 µM (inactive) | – | 21.3 µM (inactive) | –
8 | COc1ccc(N2C(=O)C3c4[nH]c5ccc(F)cc5c4C4CCC(C(C)(C)C)CC4C3C2=O)cc1 (stereo not drawn) | > 10 µM (inactive) | > 10 µM (inactive) | > 10 µM (inactive) | > 10 µM (inactive) | > 10 µM (inactive) | 7.33 µM (inactive) | > 10 µM (inactive) | 9.25 µM (inactive) | – | > 10 µM (inactive) | 9.08 µM (inactive) | > 10 µM (inactive) | > 10 µM (inactive) | > 10 µM (inactive) | > 10 µM | 2.81 µM (inactive) | – | – | > 10 µM (inactive) | –
9 | CCCCCCCCCCCCCCCCCCN(C)CC(COP(=O)([O-])OCC[N+](C)(C)C)OC (stereo not drawn) | 31.5 µM (inactive) | > 100 µM (inactive) | 13.6 µM (inactive) | 57.1 µM (inactive) | 6.03 µM (inactive) | 18.1 µM (inactive) | 3.4 µM (inactive) | > 80.7 µM (inactive) | 35.3 µM (inactive) | 3.1 µM (inactive) | > 64 µM (inactive) | > 46.9 µM (inactive) | 4.51 µM (inactive) | 14.1 µM (inactive) | 7.67 µM | > 46.1 µM (inactive) | 38.5 µM (inactive) | 6.89 µM (inactive) | 2.44 µM (inactive) | 5.14 µM (inactive)
10 | CC(C)(C)N(Cc1ccoc1)C(=O)/C=C\[S+]([O-])c1ccccc1 (stereo not drawn) | 12.5 µM (inactive) | 11.5 µM (inactive) | 31 µM (inactive) | 20.2 µM (inactive) | 14.4 µM (inactive) | 10.6 µM (inactive) | – | 14.6 µM (inactive) | 19.9 µM (inactive) | 15 µM (inactive) | 21.2 µM (inactive) | 6.79 µM (inactive) | 25.2 µM (inactive) | 24 µM (inactive) | 19.2 µM | 28.4 µM (inactive) | 10.7 µM (inactive) | 19.8 µM (inactive) | 6.44 µM (inactive) | –
11 | CSc1ccccc1P(c1ccccc1SC)c1ccccc1SC | > 100 µM (inactive) | > 100 µM (inactive) | > 100 µM (inactive) | > 100 µM (inactive) | > 100 µM (inactive) | – | – | 2.62 µM (inactive) | – | – | > 100 µM (inactive) | > 100 µM (inactive) | > 100 µM (inactive) | > 100 µM (inactive) | > 100 µM | 98.2 µM (inactive) | > 100 µM (inactive) | > 100 µM (inactive) | > 100 µM (inactive) | –
12 | O=C1CC2CC3OC3[C@H]3c4cc5c(cc4C(=O)N1C23)OCO5 (stereo partly drawn) | – | – | – | – | > 100 µM (inactive) | – | – | – | – | > 100 µM (inactive) | – | – | > 100 µM (inactive) | > 100 µM (inactive) | > 100 µM | – | – | – | > 100 µM (inactive) | –
13 | Nc1nnc(O)c2c1c(I)cn2C1OC(CO)C(O)C1O (stereo not drawn) | – | – | 5.56 µM (inactive) | – | 0.35 µM (active) | – | 1.06 µM (active) | – | 2.15 µM (inactive) | 0.643 µM (active) | – | – | 0.689 µM (active) | > 100 µM (inactive) | 0.188 µM | – | – | – | 0.0466 µM (active) | 0.082 µM (active)
14 | CCCCc1oc2ccccc2c1C(=O)c1cc(I)c(OCCN(CC)CC)c(I)c1 [AMIODARONE HYDROCHLORIDE] | – | – | 5.02 µM (inactive) | – | 3.71 µM (inactive) | – | 3.82 µM (inactive) | – | 5.21 µM (inactive) | 11.1 µM (inactive) | 5.86 µM (inactive) | – | 5.21 µM (inactive) | 5.98 µM (inactive) | 4.12 µM | – | – | – | – | 6.73 µM (inactive)
15 | COc1c(OC)c(OC)c2c(c1OC)c(=O)c1ccccc1n2C [MELICOPICINE] | > 100 µM (inactive) | > 100 µM (inactive) | > 100 µM (inactive) | > 100 µM (inactive) | > 100 µM (inactive) | > 100 µM (inactive) | – | 54.3 µM (inactive) | > 100 µM (inactive) | > 100 µM (inactive) | 73.5 µM (inactive) | > 100 µM (inactive) | > 100 µM (inactive) | > 100 µM (inactive) | 72.3 µM | > 100 µM (inactive) | > 100 µM (inactive) | > 100 µM (inactive) | 6.65 µM (inactive) | –

From ChEMBL document CHEMBL1201862, “PubChem BioAssay data set” (2004)
